Experimental data reported in ChEMBL document CHEMBL5620351, “Advancing beyond reverse transcriptase inhibitors: The new era of hepatitis B polymerase inhibitors” (Eur J Med Chem, 2023).
One block for each compound: values may come before it.

Legend:
HepG2 [1] = experiment: Cytotoxicity against human HepG2 cells assessed as cell viability incubated for 12 days by WST-1 assay; format: functional; conditions: HepG2, 288 h, time 12 day
[2] = Inhibition of HBV RNA polymerase; parameters: species or system Hepatitis B virus
Hepatitis B virus [3] = experiment: Antiviral activity against HBV transfected in human HB611 cells assessed as reduction of HBV DNA replication incubated for 5 days by q-PCR analysis; format: functional, organism-based; conditions: HB611, 120 h
Hepatitis B virus [4] = experiment: Antiviral activity against HBV transfected in human HB611 cells; format: functional, organism-based
[5] = Cytotoxicity against human HB611 cells assessed as reduction in cell viability incubated for 6 to 9 days by celltiter-glo assay; format: functional; conditions: time 6-9 day
Hepatitis B virus [6] = experiment: Antiviral activity against HBV infected in human HepDES19 cells assessed as inhibition of HBV replication by qPCR analysis; format: functional, organism-based
Hepatitis B virus [7] = experiment: Antiviral activity against HBV infected in human HepDES19 cells assessed as reduction in HBV replication; format: functional, organism-based
HepG2 [8] = experiment: Cytotoxicity against human HepG2 cells assessed as reduction in cell viability by MTS assay; format: functional
HepG2 [9] = experiment: Cytotoxicity against human HepG2 cells assessed as reduction in cell viability in presence of lamivudine by MTS assay; format: functional
Hepatitis B virus [10] = experiment: Antiviral activity against HBV infected in human HepG2.2.15.7 cells assessed as reduction in HBV DNA replication by TR-PCR analysis; format: functional, organism-based
Hepatitis B virus [11] = experiment: Antiviral activity against wild type HBV infected in human HepG2 cells assessed as reduction in HBV DNA replication by RT-PCR analysis; format: functional, organism-based
Hepatitis B virus [12] = experiment: Antiviral activity against lamivudine-resistant HBV infected in human HepG2 cells assessed as reduction in HBV DNA replication by RT-PCR analysis; format: functional, organism-based
Hepatitis B virus [13] = experiment: Antiviral activity against HBV infected in human HepG2 2.2.15 cells assessed as reduction in intracellular DNA level; format: functional, organism-based
Hepatitis B virus [14] = experiment: Antiviral activity against HBV infected in human HepG2 2.2.15 cells assessed as reduction in extracellular DNA level; format: functional, organism-based
HepG2 2.2.15 = experiment: Cytotoxicity against human HepG2 2.2.15 cells assessed as cell viability incubated for 12 days by WST-1 assay; format: functional; conditions: HepG2 2.2.15, 288 h, time 12 day
Hepatitis B virus [15] = experiment: Antiviral activity against HBV infected in human HepDES19 cells assessed as inhibition of extracellular HBV DNA by qPCR analysis; format: functional, organism-based
[16] = Cytotoxicity against human HepDES19 cells assessed as reduction in cell viability incubated for 1 hr by MTS assay; format: functional
[17] = Cytotoxicity against human HEK293 cells assessed as reduction in cell viability incubated for 1 hr by MTS assay; format: toxicity, cell-based
[18] = Cytotoxicity against human LX2 cells assessed as reduction in cell viability incubated for 1 hr by MTS assay; format: toxicity, cell-based; conditions: LX-2 cells
Hepatitis B virus [19] = experiment: Antiviral activity against HBV infected in human HepG2-NTCP12 cells assessed as inhibition of extracellular HBV DNA incubated for 2 weeks by SYBR green dye based quantitative PCR analysis; format: functional, organism-based; conditions: HepG2-NTCP12, 336 h
[20] = Cytotoxicity against human primary hepatocytes assessed as cell viability incubated for 72 hrs by MTS assay; format: toxicity, cell-based, Hepatocyte
[21] = Cytotoxicity against human primary hepatocytes assessed as cell viability incubated for 72 hrs by LDH release assay; format: toxicity, cell-based, Hepatocyte
Hepatitis B virus [22] = experiment: Antiviral activity against HBV infected in human HePAD38 cells assessed as reduction in HBV replication by qPCR analysis; format: functional, organism-based
[23] = Cytotoxicity against human HepAD38 cells assessed as reduction in cell viability incubated for 4 days by XTT assay; format: functional; conditions: HePAD38, 96 h, time 4 day
Hepatitis B virus [24] = experiment: Antiviral activity against HBV infected in human HepG2-hNTCP cells assessed as reduction in HBV DNA replication by qRT-PCR analysis; format: functional, organism-based
[25] = Cytotoxicity against human HepG2-hNTCP cells assessed as reduction in cell viability incubated for 3 days by celltiter glo assay; format: functional; conditions: 72 h, time 3 day
[26] = Cytotoxicity against human HB611 cells assessed as reduction in cell viability incubated for 3 days by celltiter glo assay; format: functional; conditions: HB611, 72 h, time 3 day
Hepatitis B virus [27] = experiment: Antiviral activity against HBV D1 infected in human HepG2.2.15 cells assessed as reduction in HBV DNA production by real-time qPCR analysis; format: functional, organism-based; conditions: D1, HepG2.2.15
Hepatitis B virus [28] = experiment: Antiviral activity against HBV C2 infected in human Huh-7 cells assessed as reduction in HBV DNA production by real-time qPCR analysis; format: functional, organism-based; conditions: C2, Huh-7
Hepatitis B virus [29] = experiment: Antiviral activity against entecavir-resistant HBV infected in human Huh-7 cells assessed as reduction in HBV DNA production by real-time qPCR analysis; format: functional, organism-based
Hepatitis B virus [30] = experiment: Antiviral activity against adefovir-resistant HBV infected in human Huh-7 cells assessed as reduction in HBV DNA production by real-time qPCR analysis; format: functional, organism-based
Huh-7 = experiment: Cytotoxicity against human Huh-7 cells assessed as reduction in cell viability by MTT assay; format: functional

Compound: O=C(/C=C/c1ccc(O)c(O)c1)OCCc1ccc(O)c(O)c1
CC50 (HepG2 [1]): 229 µM

Compound: NC(Cc1cc(O)c(O)cc1O)C(=O)O (centres undefined)
IC50 [2]: 6.6 µM
IC50 (Hepatitis B virus [3]): 21 µM
EC50 (Hepatitis B virus [4]): 16.1 µM
CC50 [5]: 66 µM

Compound: C/C(=N\c1ccccc1N)c1c(C)cc(=O)n(O)c1O
EC50 (Hepatitis B virus [6]): 0.69 µM
EC50 (Hepatitis B virus [7]): 0.11 µM

Compound: O=C1Cc2ccccc2C(=O)N1O
EC50 (Hepatitis B virus [6]): 0.69 µM
CC50 (HepG2 [8]): > 100 µM
CC50 (HepG2 [9]): > 100 µM

Compound: Clc1ccc(/C=C/c2cc(Cl)cc(Cl)c2)cc1
EC50 (Hepatitis B virus [10]): 14.4 µM
EC50 (Hepatitis B virus [11]): 13.3 µM
EC50 (Hepatitis B virus [12]): 16.4 µM

Compound: O=C(Nc1ccc(F)cc1)C1C(=O)N(O)C(=O)c2ccccc21 (centres undefined)
EC50 (Hepatitis B virus [6]): 0.69 µM

Compound: O=C(NCc1ccccc1)C1C(=O)N(O)C(=O)c2ccccc21 (centres undefined)
EC50 (Hepatitis B virus [6]): 0.69 µM

Compound: COc1ccc(CNC(=O)C2C(=O)N(O)C(=O)c3ccccc32)cc1 (centres undefined)
EC50 (Hepatitis B virus [6]): 0.69 µM

Compound: O=C(CCc1ccc(O)c(O)c1)OCCc1ccc(O)c(O)c1
CC50 (HepG2 [1]): 229 µM

Compound: CC(=O)c1cc(O)c(=O)c(O)cc1C
EC50 (Hepatitis B virus [19]): 0.049 µM
CC50 at 72 h [20]: > 100 µM
CC50 at 72 h [21]: > 100 µM

Compound: CCN(CC)C(=O)C1C(=O)N(O)C(=O)c2ccccc21 (centres undefined)
EC50 (Hepatitis B virus [6]): 0.69 µM

Compound: NC(=O)C(Cc1ccc(O)c(O)c1)OC(=O)/C=C/c1ccc(O)c(O)c1 (centres undefined)
CC50 (HepG2 [1]): 229 µM

Compound: O=c1cc(Nc2cccc(-c3ccc(F)cc3)c2)[nH]c(=O)n1O
IC50 (Hepatitis B virus [22]): 5.5 µM
CC50 [23]: > 100 µM

Compound: C/C(=N\OCc1ccc(F)cc1)c1c(C)cc(=O)n(O)c1O
EC50 (Hepatitis B virus [19]): 0.049 µM
CC50 at 72 h [20]: > 100 µM
CC50 at 72 h [21]: > 100 µM

Compound: CC(=NOCc1ccccc1F)c1c(C)cc(=O)n(O)c1O
EC50 (Hepatitis B virus [7]): 0.11 µM

Compound: CC(=NOc1ccccc1)c1c(C)cc(=O)n(O)c1O
EC50 (Hepatitis B virus [7]): 0.11 µM

Compound: N=C(N)SCCc1ccc(OCc2ccc([N+](=O)[O-])cc2)cc1
IC50 (Hepatitis B virus [24]): 7.31 µM
CC50 [25]: 37.4 µM
CC50 [26]: 41.9 µM

Compound: N#C[C@]1(CO)/C(=C\F)[C@@H](n2cnc3c(=O)[nH]c(N)nc32)C[C@@H]1O
IC50 (Hepatitis B virus [27]): 1.8 µM
IC50 (Hepatitis B virus [28]): 0.7 µM
IC50 (Hepatitis B virus [29]): 77.5 µM
IC50 (Hepatitis B virus [30]): 14.1 µM
CC50 (Huh-7): 169 µM

Compound: CC(=NOCc1ccccc1)c1c(C)cc(=O)n(O)c1O
EC50 (Hepatitis B virus [7]): 0.11 µM

Further lines, with some results ahead:

EC50 (Hepatitis B virus [13]): 0.74 µM
EC50 (Hepatitis B virus [14]): 0.48 µM
Compound: C=CCNc1nc(N)c(/C(N)=N\C#N)s1
CC50 (HepG2 2.2.15): 7.2 µM

EC50 (Hepatitis B virus [6]): 0.69 µM
Compound: O=C(Nc1ccccc1)C1C(=O)N(O)C(=O)c2ccccc21 (centres undefined)

EC50 (Hepatitis B virus [6]): 0.69 µM
Compound: COc1ccc2c(c1)C(=O)N(O)C(=O)C2C(=O)NCc1ccc(F)cc1 (centres undefined)

EC50 (Hepatitis B virus [6]): 0.69 µM
Compound: O=C(NCc1ccc(F)cc1)C1C(=O)N(O)C(=O)c2cc(Cl)ccc21 (centres undefined)

EC50 (Hepatitis B virus [15]): 0.4 µM
Compound: COC(=O)c1c(CCl)cc(O)c(=O)c(O)c1C(=O)OC
CC50 [16]: > 80 µM
CC50 at 1 h [17]: > 100 µM
CC50 at 1 h [18]: > 100 µM

IC50 (Hepatitis B virus [22]): 8 µM
Compound: COc1ccc(-c2cccc(Nc3cc(=O)n(O)c(=O)[nH]3)c2)cc1
CC50 [23]: > 100 µM

EC50 (Hepatitis B virus [19]): 0.049 µM
Compound: Cc1c(O)c2cc(Br)cnc2n(O)c1=O
CC50 at 72 h [20]: > 100 µM
CC50 at 72 h [21]: > 100 µM

EC50 (Hepatitis B virus [7]): 2.4 µM
Compound: COC(=O)C1C(=O)N(O)C(=O)c2cc(NC(=O)c3ccccc3)ccc21 (centres undefined)
